A word on the AC50: it is the concentration at which the activity in the assay is half-maximal. One may read the CC50 as the concentration giving 50% cytotoxicity.

Experiment [1] has as its target T1, Carboxy-terminal domain RNA polymerase II polypeptide A small phosphatase 1 (Homo sapiens, UniProt Q9GZU7).
T1 sequence (Q9GZU7 whole entry): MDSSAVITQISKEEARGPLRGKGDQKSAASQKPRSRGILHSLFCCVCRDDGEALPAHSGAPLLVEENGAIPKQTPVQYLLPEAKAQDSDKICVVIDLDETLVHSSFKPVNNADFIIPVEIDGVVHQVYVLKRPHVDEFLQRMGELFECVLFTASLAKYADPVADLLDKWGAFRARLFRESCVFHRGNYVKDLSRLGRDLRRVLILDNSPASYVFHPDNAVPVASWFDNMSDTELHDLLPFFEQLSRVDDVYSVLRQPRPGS
Kind of experiment: inhibitors of CTDSP1, concentration-response testing, biochemical assay, absorbance-based, actives from ultra-high-throughput screening (AID 540297). It is filed as functional.

The target in experiment [2] is T2, Tyrosine-protein phosphatase non-receptor type 22 (Homo sapiens, UniProt Q9Y2R2).
T2 sequence (Q9Y2R2 whole entry): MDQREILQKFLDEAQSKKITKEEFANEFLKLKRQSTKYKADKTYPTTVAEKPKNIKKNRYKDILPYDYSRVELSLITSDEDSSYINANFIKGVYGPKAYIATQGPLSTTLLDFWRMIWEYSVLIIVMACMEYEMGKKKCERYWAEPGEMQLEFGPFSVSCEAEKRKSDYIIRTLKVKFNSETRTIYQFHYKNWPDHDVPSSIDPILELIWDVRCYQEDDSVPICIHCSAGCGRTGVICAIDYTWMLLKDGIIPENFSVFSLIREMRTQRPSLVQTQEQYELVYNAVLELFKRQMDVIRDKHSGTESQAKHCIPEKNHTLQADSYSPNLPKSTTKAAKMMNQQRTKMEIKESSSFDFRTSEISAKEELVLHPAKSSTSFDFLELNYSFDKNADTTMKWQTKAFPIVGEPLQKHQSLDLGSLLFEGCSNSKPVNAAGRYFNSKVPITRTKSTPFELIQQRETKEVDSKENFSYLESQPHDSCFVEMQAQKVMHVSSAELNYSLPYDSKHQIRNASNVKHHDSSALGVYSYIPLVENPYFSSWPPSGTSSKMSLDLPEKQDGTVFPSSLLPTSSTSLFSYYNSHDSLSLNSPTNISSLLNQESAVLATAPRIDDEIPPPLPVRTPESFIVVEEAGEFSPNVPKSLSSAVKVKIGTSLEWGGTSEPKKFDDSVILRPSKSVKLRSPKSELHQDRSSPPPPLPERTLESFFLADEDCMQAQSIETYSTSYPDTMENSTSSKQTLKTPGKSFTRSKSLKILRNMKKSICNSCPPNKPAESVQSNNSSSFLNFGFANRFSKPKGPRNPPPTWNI
Description: PTPN22 phosphatase inhibition, dose response, selectivity assay for STEP inhibitor project, biochemical (AID 624241). It is filed as functional.

For experiment [3], the target named is Dual specificity protein phosphatase 3 (Homo sapiens, UniProt P51452). Description: VHR phosphatase inhibition, dose response, selectivity assay for STEP inhibitor project, biochemical (AID 602374). It is filed as functional. The settings on record: read-out: IC50_Mean.
In experiment [4] the target is Tyrosine-protein phosphatase non-receptor type 5 (Homo sapiens, UniProt P54829). Description: STEP phosphatase inhibitors, confirmation, biochemical, fluorescence intensity, uHTS hits (AID 602372). As to conditions: read-out: IC50_Mean. It is filed as functional.
Experiment [5] deals with Tyrosine-protein phosphatase non-receptor type 11 (Homo sapiens, UniProt Q06124). Description: SHP2 phosphatase inhibition, dose response, selectivity assay for STEP inhibitor project, biochemical (AID 602367). It is filed as functional. The settings on record: read-out: IC50_Mean.
Experiment [6] addresses Long-chain-fatty-acid--AMP ligase FadD28 (Mycobacterium tuberculosis, UniProt P9WQ59). Description: Fluorescence polarization aasay to screen for inhibitors that compete for the binding of FadD28 to a bisubstrate Measured in Biochemical System Using Plate Reader - 2147-01_Inhibitor_Dose_CherryPick_Activity. It is filed as functional, Mycobacterium tuberculosis H37Rv.
A short description of experiment [7]: Luminescence Cell-Based Dose Confirmation HTS to Identify Inhibitors of Platelet Dense Granule Release. [Related pubchem assays: 1663 (Primary HTS), 1678 (Summary of Project)]. It is filed as functional.
The nature of experiment [8]: ARNT/TACC3 interaction disruptors, potency, confirmation, biochemical, AlphaScreen, cherry-picked samples (AID 651703).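 Note: His-tagged ARNT PAS-B domain paired with GST-TACC3 E629A dimer coactivator fragment; potency of inhibitors that break up the complex and lower AlphaScreen signal.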 It is filed as functional, Homo sapiens. (In general: Alpha assays give light when donor and acceptor beads are brought close together.)
Experiment [9] concerns the target Luciferin 4-monooxygenase (Photinus pyralis, UniProt P08659). Kind of experiment: firefly luciferase enzyme inhibitors, dose response, biochemical, luminescence (AID 1891).
Experiment [10] deals with T3, ATP-dependent translocase ABCB1 (Homo sapiens, UniProt P08183). Kind of experiment: ABCB1 efflux inhibitor potency, dose response, Jurkat-DNR cells, JC-1, flow cytometry, set 2 (AID 504569).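 Note: potency of pump inhibitors that raise cellular JC-1 green fluorescence up to the nicardipine level.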 It is filed as functional. As to conditions: read-out: EC50_MICROM_. For orientation: In flow cytometry, cells or beads pass a laser one at a time.
Experiment [11] deals with T3, ATP-dependent translocase ABCB1. Description: ABCG2 efflux pump inhibitor potency, dose response, Ig-MXP3 cells, JC-1, flow cytometry, set 2 (AID 504566).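 Note: flow cytometry median green fluorescence of retained JC-1 dye; potency of efflux pump inhibition measured as rising substrate retention.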 It is filed as functional. The settings on record: read-out: EC50_MICROM_.
The target in experiment [12] is Arf-GAP with SH3 domain, ANK repeat and PH domain-containing protein 1 (Homo sapiens, UniProt Q9ULH1). It is filed as functional.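 Note: biochemical fluorescence polarization dose–response screen measuring inhibition of ASAP1; ASAP1 GAP domain stimulating GTP hydrolysis by truncated human ARF1.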
In experiment [13] the target is Protein S100-A4 (Homo sapiens, UniProt P26447). Description: S100A4-myosin IIA binding inhibitor potency, dose response, biochemical, fluorescence polarization, cherry-picked hits (AID 687001). It is filed as functional. On the technique in general: Fluorescence polarisation rises when a labelled molecule tumbles more slowly, as on binding a larger partner.
Experiment [14] has as its system H9c2. Description: cells. The class given is functional, cell-based. As to conditions: Rattus norvegicus, H9c2, Myocardium.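 Note: confirmatory concentration-response retest of ultra-high-throughput screening hits for modulation of myocardial damage; cell death induced by hydrogen peroxide oxidative stress; compound pretreatment for 60 min then peroxide exposure for 2 h; potency is for protecting the cells against peroxide damage rather than for killing them.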
Experiment [15] can be described thus: Vero cell cytotoxicity, cytotoxicity control for M. tuberculosis inhibitor project, purified and synthesized samples, set 3 (AID 504684). The settings on record: […]. It is filed as functional.
A short description of experiment [16]: A Cell Based Secondary Assay To Explore Cytotoxicity of Compounds that Sensitize Mycobacterium Tuberculosis to Beta-Lactam Antibiotics. The class given is functional.
Experiment [17] concerns the target ADP-ribosylation factor GTPase-activating protein 1 (Rattus norvegicus, UniProt Q62848). Description: Fluorescence polarization-based biochemical high throughput dose response screening assay to identify inhibitors of ADP-ribosylation factor GTPase activating protein 1 (ARFGAP1). It is filed as functional.
For experiment [18], the target named is Low molecular weight phosphotyrosine protein phosphatase (Homo sapiens, UniProt P24666). It is filed as functional. The settings on record: read-out: IC50_Mean.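 Note: Dose-response confirmation assay measuring inhibition of LMPTP enzyme activity by fluorescence intensity read-out.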
Experiment [19] deals with Nonstructural protein 1 (Influenza A virus, UniProt Q194T2). It is filed as functional, Influenza A virus (A/California/07/2009(H1N1)).
Experiment [20] concerns the target T4, Microphthalmia-associated transcription factor (Homo sapiens, UniProt O75030).
T4 sequence (O75030 whole entry): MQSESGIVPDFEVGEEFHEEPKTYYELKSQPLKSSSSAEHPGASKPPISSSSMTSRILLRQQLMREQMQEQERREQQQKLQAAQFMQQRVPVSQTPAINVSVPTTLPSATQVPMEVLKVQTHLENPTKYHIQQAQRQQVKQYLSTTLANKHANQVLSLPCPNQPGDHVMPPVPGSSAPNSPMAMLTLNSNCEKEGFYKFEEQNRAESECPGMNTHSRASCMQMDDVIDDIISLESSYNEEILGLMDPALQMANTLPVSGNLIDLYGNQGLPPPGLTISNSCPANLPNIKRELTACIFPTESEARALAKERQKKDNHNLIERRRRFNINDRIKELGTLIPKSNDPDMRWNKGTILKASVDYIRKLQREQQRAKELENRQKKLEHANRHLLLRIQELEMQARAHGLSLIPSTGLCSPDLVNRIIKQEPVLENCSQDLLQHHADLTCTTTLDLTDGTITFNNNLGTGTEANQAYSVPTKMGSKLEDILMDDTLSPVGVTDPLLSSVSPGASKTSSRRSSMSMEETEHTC
Description: TRPM1 promoter luciferase signal decrease, dose response, MITF inhibitor project, cell-based, SK-MEL-5, cherry-picked, set 3 (AID 493073).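 Note: SK-MEL-5 melanoma cells with luciferase driven by the MITF target TRPM1 promoter.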 It is filed as functional.

The target in experiment [21] is T5, DNA repair and recombination protein RAD54-like (Homo sapiens, UniProt Q92698).
T5 sequence (Q92698 whole entry): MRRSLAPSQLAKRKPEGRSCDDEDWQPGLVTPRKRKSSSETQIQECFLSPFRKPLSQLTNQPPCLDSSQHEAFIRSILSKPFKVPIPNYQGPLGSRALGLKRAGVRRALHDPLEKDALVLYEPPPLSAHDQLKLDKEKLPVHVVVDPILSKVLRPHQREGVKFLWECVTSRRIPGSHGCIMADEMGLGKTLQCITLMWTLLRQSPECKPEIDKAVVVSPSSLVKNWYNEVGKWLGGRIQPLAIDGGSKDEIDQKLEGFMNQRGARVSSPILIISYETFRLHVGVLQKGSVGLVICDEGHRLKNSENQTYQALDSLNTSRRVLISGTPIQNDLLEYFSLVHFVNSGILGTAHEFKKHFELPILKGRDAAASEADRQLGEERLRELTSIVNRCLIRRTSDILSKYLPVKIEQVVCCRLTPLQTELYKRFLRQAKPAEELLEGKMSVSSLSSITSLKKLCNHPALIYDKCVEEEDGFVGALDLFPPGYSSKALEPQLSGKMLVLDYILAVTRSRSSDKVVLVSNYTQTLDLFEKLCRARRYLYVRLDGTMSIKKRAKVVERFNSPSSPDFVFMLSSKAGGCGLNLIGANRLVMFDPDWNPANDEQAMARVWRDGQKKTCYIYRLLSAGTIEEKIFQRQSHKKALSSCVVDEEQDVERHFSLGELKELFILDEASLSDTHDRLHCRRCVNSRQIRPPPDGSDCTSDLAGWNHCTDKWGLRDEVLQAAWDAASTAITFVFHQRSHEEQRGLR
Kind of experiment: inhibitors of human RAD54 branch migration, confirmation, biochemical, fluorescence, cherry-picked samples, dose series (AID 651657). The class given is functional.

The target in experiment [22] is T6, DNA repair protein RAD52 homolog (Homo sapiens, UniProt P43351).
T6 sequence (P43351 whole entry): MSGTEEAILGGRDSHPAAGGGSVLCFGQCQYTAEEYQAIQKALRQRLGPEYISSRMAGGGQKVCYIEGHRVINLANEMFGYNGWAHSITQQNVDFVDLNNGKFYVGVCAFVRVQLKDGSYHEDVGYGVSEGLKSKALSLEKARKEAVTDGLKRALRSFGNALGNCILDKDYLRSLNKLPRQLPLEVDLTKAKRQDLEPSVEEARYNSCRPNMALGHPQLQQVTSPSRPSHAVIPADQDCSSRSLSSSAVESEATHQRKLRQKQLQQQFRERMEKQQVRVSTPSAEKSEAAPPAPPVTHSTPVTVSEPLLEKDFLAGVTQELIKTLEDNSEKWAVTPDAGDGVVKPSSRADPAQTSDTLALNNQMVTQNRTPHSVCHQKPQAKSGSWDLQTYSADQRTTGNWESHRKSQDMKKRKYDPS
The class given is functional, biochemical.

The nature of experiment [23]: MDA-MB-231 cell growth inhibition, dose response, cytotoxicity control for RAD54 inhibitor project, CellTiter-Glo luminescence, cherry-pick (AID 651692). The class given is functional, cell-based.

The source made the active and inactive calls.

T3 sequence (P08183 whole entry): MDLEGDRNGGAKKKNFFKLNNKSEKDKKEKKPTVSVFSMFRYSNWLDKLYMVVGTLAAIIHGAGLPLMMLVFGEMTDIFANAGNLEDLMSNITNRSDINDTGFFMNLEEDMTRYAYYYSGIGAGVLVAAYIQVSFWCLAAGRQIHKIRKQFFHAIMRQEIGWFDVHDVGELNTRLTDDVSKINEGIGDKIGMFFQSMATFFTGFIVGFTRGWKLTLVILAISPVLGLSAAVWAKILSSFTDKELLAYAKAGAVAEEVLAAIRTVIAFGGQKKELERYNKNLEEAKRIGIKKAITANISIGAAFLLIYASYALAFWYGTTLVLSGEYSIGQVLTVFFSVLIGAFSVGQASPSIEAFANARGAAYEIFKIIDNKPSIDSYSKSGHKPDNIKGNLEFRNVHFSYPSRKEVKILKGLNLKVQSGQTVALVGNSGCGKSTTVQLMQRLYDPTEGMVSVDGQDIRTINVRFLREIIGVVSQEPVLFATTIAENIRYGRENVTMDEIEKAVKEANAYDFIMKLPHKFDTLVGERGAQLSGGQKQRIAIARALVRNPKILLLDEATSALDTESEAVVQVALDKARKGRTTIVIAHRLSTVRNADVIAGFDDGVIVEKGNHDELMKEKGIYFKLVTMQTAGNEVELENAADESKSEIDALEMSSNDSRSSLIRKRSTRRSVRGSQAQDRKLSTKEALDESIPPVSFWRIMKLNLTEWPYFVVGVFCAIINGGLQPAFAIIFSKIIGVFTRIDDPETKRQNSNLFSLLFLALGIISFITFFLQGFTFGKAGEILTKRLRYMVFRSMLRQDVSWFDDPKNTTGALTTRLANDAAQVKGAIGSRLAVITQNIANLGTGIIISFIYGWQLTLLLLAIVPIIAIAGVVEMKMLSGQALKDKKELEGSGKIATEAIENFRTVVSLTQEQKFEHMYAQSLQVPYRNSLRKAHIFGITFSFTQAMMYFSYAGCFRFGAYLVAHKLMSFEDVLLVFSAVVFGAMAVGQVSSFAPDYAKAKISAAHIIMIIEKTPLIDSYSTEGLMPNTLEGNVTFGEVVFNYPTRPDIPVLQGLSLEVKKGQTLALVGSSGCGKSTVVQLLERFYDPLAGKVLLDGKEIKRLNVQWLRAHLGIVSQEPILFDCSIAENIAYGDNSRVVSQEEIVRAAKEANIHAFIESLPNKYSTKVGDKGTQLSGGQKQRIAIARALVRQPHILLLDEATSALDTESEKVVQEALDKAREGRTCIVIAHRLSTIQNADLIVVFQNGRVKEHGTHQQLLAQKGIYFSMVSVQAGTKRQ
Sequence of Long-chain-fatty-acid--AMP ligase FadD28 (P9WQ59 whole entry): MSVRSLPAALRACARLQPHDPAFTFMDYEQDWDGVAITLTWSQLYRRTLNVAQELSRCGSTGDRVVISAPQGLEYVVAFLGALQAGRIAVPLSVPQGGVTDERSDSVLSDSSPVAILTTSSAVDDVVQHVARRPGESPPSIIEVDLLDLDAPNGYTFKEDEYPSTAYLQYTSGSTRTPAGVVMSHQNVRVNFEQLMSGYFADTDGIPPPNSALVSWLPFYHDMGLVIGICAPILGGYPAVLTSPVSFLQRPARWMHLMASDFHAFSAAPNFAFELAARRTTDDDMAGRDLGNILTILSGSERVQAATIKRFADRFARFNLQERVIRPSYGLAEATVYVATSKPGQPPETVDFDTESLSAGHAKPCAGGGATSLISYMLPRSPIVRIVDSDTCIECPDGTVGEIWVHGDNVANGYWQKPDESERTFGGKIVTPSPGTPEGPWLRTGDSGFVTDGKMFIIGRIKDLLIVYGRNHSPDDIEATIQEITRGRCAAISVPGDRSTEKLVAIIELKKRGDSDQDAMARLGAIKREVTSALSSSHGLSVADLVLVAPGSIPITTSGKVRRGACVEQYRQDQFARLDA
Sequence of Arf-GAP with SH3 domain, ANK repeat and PH domain-containing protein 1 (Q9ULH1 whole entry, the tested form may be a part): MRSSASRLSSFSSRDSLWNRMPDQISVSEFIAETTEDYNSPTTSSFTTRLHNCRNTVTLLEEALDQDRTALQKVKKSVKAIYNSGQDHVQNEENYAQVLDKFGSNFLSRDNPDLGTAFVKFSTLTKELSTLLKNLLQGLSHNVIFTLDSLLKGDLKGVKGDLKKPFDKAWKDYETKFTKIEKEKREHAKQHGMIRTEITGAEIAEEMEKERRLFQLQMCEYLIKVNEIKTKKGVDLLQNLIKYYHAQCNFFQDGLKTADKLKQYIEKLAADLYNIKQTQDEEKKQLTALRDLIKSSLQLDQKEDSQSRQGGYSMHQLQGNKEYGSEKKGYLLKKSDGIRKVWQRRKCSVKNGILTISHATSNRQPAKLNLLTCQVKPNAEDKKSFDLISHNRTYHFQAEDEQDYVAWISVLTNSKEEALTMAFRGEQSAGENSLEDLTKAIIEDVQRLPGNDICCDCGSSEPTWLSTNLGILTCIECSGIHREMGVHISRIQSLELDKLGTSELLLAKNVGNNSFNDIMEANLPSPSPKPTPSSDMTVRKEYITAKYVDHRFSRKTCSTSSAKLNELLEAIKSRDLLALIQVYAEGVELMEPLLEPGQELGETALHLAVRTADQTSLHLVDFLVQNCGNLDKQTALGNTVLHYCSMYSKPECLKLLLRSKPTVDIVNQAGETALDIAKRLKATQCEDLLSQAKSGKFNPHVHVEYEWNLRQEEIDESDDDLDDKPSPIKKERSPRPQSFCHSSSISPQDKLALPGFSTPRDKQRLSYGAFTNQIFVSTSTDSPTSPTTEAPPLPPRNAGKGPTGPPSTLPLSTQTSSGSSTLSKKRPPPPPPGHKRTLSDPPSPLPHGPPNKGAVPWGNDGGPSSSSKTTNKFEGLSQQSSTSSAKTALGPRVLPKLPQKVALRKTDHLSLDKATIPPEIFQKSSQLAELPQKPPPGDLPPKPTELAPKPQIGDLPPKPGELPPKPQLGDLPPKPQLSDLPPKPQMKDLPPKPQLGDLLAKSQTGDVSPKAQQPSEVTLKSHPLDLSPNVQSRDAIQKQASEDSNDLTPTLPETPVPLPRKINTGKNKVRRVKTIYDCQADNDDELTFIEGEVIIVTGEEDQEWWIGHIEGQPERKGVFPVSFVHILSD
Sequence of Luciferin 4-monooxygenase (P08659 whole entry): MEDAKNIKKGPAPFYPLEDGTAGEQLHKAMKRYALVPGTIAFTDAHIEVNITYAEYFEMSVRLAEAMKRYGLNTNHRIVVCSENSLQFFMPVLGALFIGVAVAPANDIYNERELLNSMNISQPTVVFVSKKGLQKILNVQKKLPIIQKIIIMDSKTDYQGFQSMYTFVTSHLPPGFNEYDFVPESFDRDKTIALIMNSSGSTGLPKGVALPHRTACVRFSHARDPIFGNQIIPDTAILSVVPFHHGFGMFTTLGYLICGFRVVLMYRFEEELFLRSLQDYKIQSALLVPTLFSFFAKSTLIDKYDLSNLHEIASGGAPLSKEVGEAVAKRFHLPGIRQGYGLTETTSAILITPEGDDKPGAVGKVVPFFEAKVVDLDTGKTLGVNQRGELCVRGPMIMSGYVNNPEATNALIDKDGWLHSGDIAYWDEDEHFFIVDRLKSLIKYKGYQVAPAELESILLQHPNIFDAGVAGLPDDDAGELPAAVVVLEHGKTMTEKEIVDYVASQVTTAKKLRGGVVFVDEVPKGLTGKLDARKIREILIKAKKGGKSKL
Sequence of Tyrosine-protein phosphatase non-receptor type 5 (P54829 whole entry): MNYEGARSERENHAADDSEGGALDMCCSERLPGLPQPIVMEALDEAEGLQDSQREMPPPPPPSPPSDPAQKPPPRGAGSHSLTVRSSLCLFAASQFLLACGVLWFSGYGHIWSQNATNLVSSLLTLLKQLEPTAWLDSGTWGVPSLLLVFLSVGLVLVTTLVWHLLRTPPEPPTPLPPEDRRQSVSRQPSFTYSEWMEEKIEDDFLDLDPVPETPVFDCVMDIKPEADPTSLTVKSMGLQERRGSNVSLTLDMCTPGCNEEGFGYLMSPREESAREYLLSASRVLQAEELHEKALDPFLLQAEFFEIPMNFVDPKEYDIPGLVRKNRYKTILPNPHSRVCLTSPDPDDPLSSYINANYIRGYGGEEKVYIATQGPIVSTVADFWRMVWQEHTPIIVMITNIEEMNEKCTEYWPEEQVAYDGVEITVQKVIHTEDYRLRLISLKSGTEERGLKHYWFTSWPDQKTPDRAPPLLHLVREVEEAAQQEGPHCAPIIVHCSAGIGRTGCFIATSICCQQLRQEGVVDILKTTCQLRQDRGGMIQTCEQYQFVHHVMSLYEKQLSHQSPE
Sequence of Tyrosine-protein phosphatase non-receptor type 11 (Q06124 whole entry): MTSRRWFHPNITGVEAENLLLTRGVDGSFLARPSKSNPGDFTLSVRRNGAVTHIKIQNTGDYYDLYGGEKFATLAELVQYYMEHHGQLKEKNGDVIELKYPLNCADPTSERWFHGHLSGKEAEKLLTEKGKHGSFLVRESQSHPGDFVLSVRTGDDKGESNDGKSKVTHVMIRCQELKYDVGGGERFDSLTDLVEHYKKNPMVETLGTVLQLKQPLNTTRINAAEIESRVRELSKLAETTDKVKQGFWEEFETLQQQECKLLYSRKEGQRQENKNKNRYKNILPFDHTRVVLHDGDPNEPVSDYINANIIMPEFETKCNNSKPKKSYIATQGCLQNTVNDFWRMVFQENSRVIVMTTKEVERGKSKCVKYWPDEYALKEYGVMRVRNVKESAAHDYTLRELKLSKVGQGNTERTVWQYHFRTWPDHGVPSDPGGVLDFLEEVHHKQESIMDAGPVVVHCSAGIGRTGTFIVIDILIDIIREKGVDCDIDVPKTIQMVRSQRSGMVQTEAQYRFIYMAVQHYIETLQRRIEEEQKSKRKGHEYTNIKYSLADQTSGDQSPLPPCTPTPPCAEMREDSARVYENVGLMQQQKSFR
Sequence of Nonstructural protein 1 (Q194T2 whole entry): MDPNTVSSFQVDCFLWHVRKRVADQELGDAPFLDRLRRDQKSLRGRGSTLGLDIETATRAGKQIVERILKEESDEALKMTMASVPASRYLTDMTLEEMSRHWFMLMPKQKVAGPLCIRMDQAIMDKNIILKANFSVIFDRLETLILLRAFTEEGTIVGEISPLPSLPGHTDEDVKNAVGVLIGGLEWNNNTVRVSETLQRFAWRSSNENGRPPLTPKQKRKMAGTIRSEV
Sequence of Protein S100-A4 (P26447 whole entry): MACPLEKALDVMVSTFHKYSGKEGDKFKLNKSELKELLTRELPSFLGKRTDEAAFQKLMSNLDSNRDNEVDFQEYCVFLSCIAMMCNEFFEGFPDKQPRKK

In the case of `CCOC(=O)CN1C(=O)S/C(=C/c2ccc(OCc3ccc(C(=O)O)cc3)cc2)C1=O`, the IC50 in experiment [1] is 3.74 µM (active); in [2], 50.6 µM (inactive); in experiment [3] it was 4.27 µM (active); in experiment [4], 25.4 µM (inactive); in [5] it was 3.24 µM (active).
`Cc1ccc(CSCCNC(=O)c2ccc(N(C)S(=O)(=O)c3ccccc3)cc2)cc1`: the AC50 in experiment [6] was 7.13 µM (active).
Take `CCOc1ccc(Nc2cc3n(c(=O)n2)CCc2cc(OC)c(OC)cc2-3)cc1`: the EC50 in [7] is 12.5 µM (active); in [9], > 112 µM (not active). Besides, the AC50 in [8] is 102 µM (active).
Regarding `O=C(c1ccccc1)N1CCN(c2cc(-c3ccccc3)nc3cc(-c4ccc(F)cc4)nn23)CC1`, the EC50 was 5.63 µM (active) in experiment [10] and 2.35 µM (active) in experiment [11].
With `COc1cc(/C=C2/SC(N)=NC2=O)ccc1Oc1ccc([N+](=O)[O-])cc1[N+](=O)[O-]`, the IC50 in experiment [12] was 54.9 µM (inactive).
In the case of `O=C1C=C(N2CCOCC2)c2cccc3cccc1c23`, the AC50 in [13] was 4.83 µM (active). In addition, the IC50 in experiment [14] was 18.2 µM (active).
In the case of `O=c1[nH]c(S)nc2ccccc12`, in experiment [15], the CC50 is > 100 µM (active).
On to `Cc1cccc(NC(=O)Cn2cnc3c(oc4ccccc43)c2=O)c1C`, for which the CC50 in experiment [16] is > 40 µM (active). Moreover, in experiment [17], the IC50 is 28.7 µM (inactive).
Consider `O=C(COc1ccccc1)Nc1sc2c(c1C(=O)NCc1cccnc1)CCCC2`, for which the IC50 in [18] was 21.3 µM (inactive).
As for `CCN1CCCC1CNC(=O)c1ccc2c(c1)NC(=O)/C(=C\c1ccc(OC)c(OC)c1)S2` (stereo not drawn), the IC50 in experiment [19] is 81.9 µM (active). Further, the AC50 is 13.8 µM (active) in experiment [20], 12.6 µM (active) in experiment [21], 3.24 µM (active) in experiment [22] and 36.4 µM (active) in experiment [23].

Values taken from ChEMBL document CHEMBL1201862, “PubChem BioAssay data set” (2004).
